Data published in patent EP2241555A1, “New RAC1 inhibitors as potential pharmacological agents for heart failure treatment” (UNIVERSITA' DEGLI STUDI DI MILANO, priority 2009, dated 2010).

Experiments:
[1] = system: HepG2 cells; experiment: Resazurine cytotoxicity assay (metabolic activity), HepG2; format: cell-based, human; conditions: for MVC / EC50: HepG2, 24 h; for MVC: maximal viability concentration; for Cytotoxicity-Classification: HepG2, 24 h exposure; for EC50: Homo sapiens, metabolic activity, read-out: EC50
Experimental: (§1) For a pre-screening of the compounds they were first tested in human hepatocellular carcinoma cells (HepG2 cells)for 24 h and to gain further information about the cytotoxic potential more specific target tissues like the mouse cardiomyocytes HL-1 and primary rat cardiomyocytes were used additionally. […] The toxicity classification has been determined by using drugs currently utilized in clinic with known toxicity profile

[2] = Substrate depletion in human liver microsomes and in vitro - in vivo extrapolation; format: in vitro ADME; conditions: for CLh: hepatic clearance; for CLh / CLint / CLtot: extrapolated to human from substrate depletion (1 µM, 60 min); for half-life at 1 µM: human, human liver microsomes; for CLint: intrinsic clearance (whole liver); for CLtot: total (systemic) clearance
Experimental: The remaining peak areas after 60 minutes incubation was also determined after incubation with increasing concentrations of compounds CWB021/01039 and CWB024/02054. […] The disappearances for both study compounds were also clearly cofactor dependent and thus metabolism related Calculations of pharmacokinetic (PK) parameters on the basis of substrate depletion for both study compounds (1 µM, 60 min time point) in human liver microsomes are shown in Table 6. Table 6. Kinetic in vitro - in vivo extrapolations of study compound clearances and half-lifes in human, wherein: intrinsic clearance (whole liver) = CLint; hepatic clearance = CLH; total (systemic) clearance = CLtotal; half-life = t1/2.

[3] = Caco2 monolayer permeation; format: in vitro ADME, human; conditions: human, Caco-2, Caco2 monolayers, start concentration 50 µM
Experimental: (§2) The permeation characteristics of the Rac1 inhibitors were determined first in the artificial system PAMPA (Parallel Artificial Membrane Permeability Assay) which uses a membrane covered with a lipid to simulate the lipid bilayer of various cell types, including intestinal epithelium and second in vitro across Caco2, a human colon carcinoma cell line seeded as monolayers onto polycarbonate membranes. The PAMPA is able to predict the ability of a compound to permeate by a passive transcellular transport through an artificial lipid layer assembled on a membrane and also allows a classification into low (flux <20%), medium (20%≤ flux ≤70%), and high (flux >70%) absorbing substances. The Caco2 assay provides a well-established in vitro model to predict the human intestinal absorption.

[4] = system: Caco2; experiment: Caco2 monolayer permeation; format: in vitro ADME, human; conditions: Caco2 monolayers, 90 min, start concentration 50 µM
Experimental: as §2

[5] = target: CYP2D6 (Homo sapiens, UniProt P10635); experiment: Inhibition of CYP2D6 activity; format: biochemical; conditions: read-out: CYP2D6 activity inhibited by
[6] = system: HL-1 cells; experiment: Apoptosis of ischemic HL-1 cardiomyocytes (TUNEL assay, flow cytometer); format: cell-based, mouse; conditions: 100 µM; for Relative rate of apoptosis normalised to control [%]: 8 h ischemia (glucose deficient medium + hydrogen peroxide), 8h Ischemia alone 701.6, 8h Control 100
Experimental: To establish a cardiomyocytes based apoptosis assay, which mimics the post-ischemic damage observed after myocardial infarction, we have utilized a cardiac muscle cell line, HL-1 cells, derived from the AT-1 mouse atrial cardiomyocyte tumor lineage. The HL-1 cells were incubated in glucose deficient medium in the presence of hydrogen peroxide and either in presence or absence of compounds of the invention Apoptosis rate of ischemic HL-1 cells was normalised to the apoptosis rate of the 8h control cells under non-ischemic conditions, thus incubated with normal concentration of glucose in the absence of hydrogen peroxide. Both non-ischemic and ischemic HL-1 cultures were harvested after 8 hours. […] The apoptotic rates were then evaluated by TUNEL assay, a method for detecting DNA strand breaks in apoptotic cells by flow cytometer The solvent of the compounds, i.e DMSO, has no influence on the apoptosis rate. […] Effect of newly synthesized compounds with Rac1 inhibitory activity on apoptosis rate in HL-1 cells normalized to control (TUNEL-assay) The data are representative of two experiments.

[7] = target: T1, Rac1 (Homo sapiens, UniProt P63000); experiment: G-LISA assay of intracellular Rac1-GTP in PDGF-BB stimulated human smooth muscle cells; format: cell-based; conditions: for remaining activity at 50 µM: Concentration 50 µm, 4 hours incubation, then PDGF-BB 10 ng/ml, Rac1-GTP detected relative to control (100), lower = more inhibition, read-out: Rac1 inhibitory activity (% vs control); for inhibitory action on Rac1 activity: G-LISA, 50 µM, statement in words
T1 construct: endogenous in cells; host or cells: human cultured smooth muscle cells, stimulated with PDGF-BB
Source text: The intracellular amount of Rac1-GTP has been determined using the GLISA™ assay (Cytoskeleton, Inc). The GLISA™ assay uses a 96-well plate coated with RBD domain of Rac1-family effector protein PAK1. […] A significant inhibition on Rac1 activity should decrease the intracellular levels of Rac1-GTP and therefore reduce the percentage of Rac1-GTP detected compared to control untreated cells.

[8] = system: major drug metabolising CYPs (including CYP2C19, CYP2D6, CYP3A4); experiment: Inhibition of major drug metabolising CYP activities
Source text: The probe metabolites as in experimental For CYP2C19, a=omeprazole demethylation and b=omeprazole 5-hydroxylation; for CYP3A4, a=omeprazole 3-hydroxylation, b= omeprazole sulfonation, c=testosterone 6β-hydroxylation and d= midazolam 1'-hydroxylation.

[9] = tissue homogenate, 60 min, 10 µM
Experimental: The basic incubation mixture with total volume of 500 µl consisted of the following components. 100 µl liver homogenate, compound in DMSO (dimethyl sulfoxide) and 1 mM NADPH (reduced nicotinamide adenine dinucleotide phosphate), 1 mM UDPGA (uridine 5'-diphosphoglucuronic acid), 1 mM PAPS (3'-phosphoadenosine-5'-phosphosulfate) and 1 mM GSH (glutathione). The substrate concentration used was 10 µM. Two parallel incubations, one with cofactors and one without, were made. Final DMSO concentration in the incubation was 1 µM. […] Reaction was started by addition of a cofactor mixture and stopped by adding 250 µl of ice-cold acetonitrile.

[10] = system: HL-1; experiment: Resazurine cytotoxicity assay (metabolic activity), HL-1; format: cell-based, mouse; conditions: for MVC / EC50: HL-1, 24 h; for MVC: maximal viability concentration; for Cytotoxicity-Classification: HL-1, 24 h exposure; for EC50: Mus musculus, metabolic activity
Experimental: as §1

[11] = system: primary rat cardiomyocytes; experiment: Resazurine cytotoxicity assay (metabolic activity), primary rat cardiomyocytes; format: cell-based; conditions: for MVC / EC50: 24 h; for MVC: maximal viability concentration; for Cytotoxicity-Classification: 24 h exposure; for EC50: Cardiomyocyte, metabolic activity
Experimental: as §1

[12] = PAMPA (Parallel Artificial Membrane Permeability Assay); format: in vitro ADME; conditions: start concentration 250 µM, diffusion period 16 h
Experimental: as §2
The flux rate of the compounds of the invention and the reference NSC23766 was measured from a donor compartment to an acceptor compartment across the lipid layer at a start concentration of 250 µM over a diffusion period of 16 h.

[13] = target: T1, Rac1; experiment: Classic pull down assay of Rac1-GTP in human cells; format: cell-based; conditions: 50 and 100 µM; Figure 2
Experimental: Thus, a classic pull down assay was also performed in human cells incubated with 50 and 100 µM concentration of CWB024/02054

[14] = 0.1 µM initial substrate concentration
[15] = 1 µM initial substrate concentration
[16] = 10 µM initial substrate concentration

Sequence of CYP2D6 (P10635 whole entry): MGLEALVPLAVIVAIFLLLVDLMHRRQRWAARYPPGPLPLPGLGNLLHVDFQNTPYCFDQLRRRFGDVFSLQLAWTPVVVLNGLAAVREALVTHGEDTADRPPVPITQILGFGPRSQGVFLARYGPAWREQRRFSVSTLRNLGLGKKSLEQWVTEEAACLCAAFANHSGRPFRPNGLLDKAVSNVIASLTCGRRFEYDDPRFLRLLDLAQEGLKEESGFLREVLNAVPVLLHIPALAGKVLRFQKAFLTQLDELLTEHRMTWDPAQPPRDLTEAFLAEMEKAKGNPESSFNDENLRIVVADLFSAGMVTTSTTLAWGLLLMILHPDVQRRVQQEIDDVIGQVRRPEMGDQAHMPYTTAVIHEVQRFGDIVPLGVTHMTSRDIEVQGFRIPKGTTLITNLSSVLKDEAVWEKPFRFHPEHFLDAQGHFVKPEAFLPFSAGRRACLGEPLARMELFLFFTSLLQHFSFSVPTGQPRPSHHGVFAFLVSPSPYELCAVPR

CCN(CC)CCCC(C)Nc1nccc(Nc2ccc3[nH]c(C)cc3c2)n1 (stereo not drawn) [CWB021/01039, N2-(4-Diethylamino-1-methyl-butyl)-N4-(2-methyl-1H-indol-5-yl)-pyrimidine-2,4-diamine]
MVC [1]: 7.8 µM
Cytotoxicity-Classification [1]: ++ (10 µM < EC50 ≤ 100 µM, medium (++))
EC50 [1]: 21 µM
remaining peak area after 60 minutes incubation [2, 14]: 69%
remaining peak area after 60 minutes incubation [2, 15]: 81%
remaining peak area after 60 minutes incubation [2, 16]: 95%
CLh [2]: 15.14 L/h
half-life at 1 µM [2]: 7.3 h
CLint [2]: 0.31 L/min
CLtot [2]: 15.32 L/h
Papp at 90 min, 50 µM [3]: 17.1 ± 12.5 ×10⁻⁶ cm/s
Caco2 Classification [4]: high (compounds with a Papp >10 are predicted to be well absorbed (70 - 100%))
inhibition at 10 µM [5]: 35%
Relative rate of apoptosis normalised to control [%] [6]: 511.6%
remaining activity at 50 µM [7]: 81.1%
inhibitory action on Rac1 activity [7]: significant end efficient inhibitory action
IC50 [8]: > 10 µM
remaining LC/MS peak area (relative to 0 min incubation samples, %) [9]: 33-41%
MVC [10]: 31.2 µM
Cytotoxicity-Classification [10]: ++ (10 µM < EC50 ≤ 100 µM, medium (++))
EC50 [10]: 24 µM
MVC [11]: 31.3 µM
Cytotoxicity-Classification [11]: ++ (10 µM < EC50 ≤ 100 µM, medium (++))
EC50 [11]: 13 µM
PAMPA classification [12]: low (low (flux <20%))
PAMPA flux [%] ± SD [12]: 5±1%

CCN(CC)CCCC(C)Nc1nccc(Nc2ccc3[nH]ccc3c2)n1 (stereo not drawn) [CWB024/02054, N2-(4-Diethylamino-1-methyl-butyl)-N4-(1H-indol-5-yl)-pyrimidine-2,4-diamine]
MVC [1]: 7.8 µM
Cytotoxicity-Classification [1]: ++ (10 µM < EC50 ≤ 100 µM, medium (++))
EC50 [1]: 33 µM
remaining peak area after 60 minutes incubation [2, 14]: 76%
remaining peak area after 60 minutes incubation [2, 15]: 87%
remaining peak area after 60 minutes incubation [2, 16]: 86%
CLh [2]: 10.63 L/h
half-life at 1 µM [2]: 10.3 h
CLint [2]: 0.2 L/min
CLtot [2]: 10.81 L/h
Papp at 90 min, 50 µM [3]: 32.1 ± 12.4 ×10⁻⁶ cm/s
Caco2 Classification [4]: high (compounds with a Papp >10 are predicted to be well absorbed (70 - 100%))
inhibition at 10 µM [5]: 30%
Relative rate of apoptosis normalised to control [%] [6]: 319.4%
reduction of relative apoptosis ([6]; versus 8 h ischemia): approximately 50%
remaining activity at 50 µM [7]: 58.3%
inhibitory action on Rac1 activity [7]: significant end efficient inhibitory action
reduced the intracellular content of Rac1-GTP [13]: over 90%
IC50 [8]: > 10 µM
remaining LC/MS peak area (relative to 0 min incubation samples, %) [9]: about 91%
MVC [10]: 7.8 µM
Cytotoxicity-Classification [10]: ++ (10 µM < EC50 ≤ 100 µM, medium (++))
EC50 [10]: 56 µM
MVC [11]: 1.9 µM
Cytotoxicity-Classification [11]: ++ (10 µM < EC50 ≤ 100 µM, medium (++))
EC50 [11]: 17 µM
PAMPA classification [12]: low (low (flux <20%))
PAMPA flux [%] ± SD [12]: 6±2%
